Source: patent US9532569B2 (INSTITUT NATIONAL DE LA RECHERCHE AGRONOMIQUE, priority 2012, dated 2017)

Tests used:
[1] = Stability in aqueous medium (UPLC, % nondegraded compound); assay type: physicochemical
Protocol: The stability in aqueous medium of the compound (IIa) according to the invention and that of GR24 as comparative compound was evaluated in the following way.
Each compound was diluted in acetone (1 ml), then 50 μl of each solution were diluted with methanol (175 μl) and water (750 μl) so as to obtain a compound concentration of 50 μg/ml.
The aqueous solution thus obtained was incubated at 21° C. in HPLC vials.
Indanol (25 μl of a solution at 1 mg/ml in acetone) was added to each solution in order to serve as an internal standard.
The degradation of each compound over time was monitored by analysis of samples taken from the solution at various time intervals, by Ultra Performance Liquid Chromatograpy (UPLC) by means of an Acquity UPLC HSS C18 column (1.8 μm, 2.1×50 mm), eluted first of all with a solution of acetonitrile at 5% in water containing 0.1% of formic acid, for 0.5 min, then with a gradient of 5% to 100% of acetonitrile in water containing 0.1% of formic acid, for 6.5 min, and with 100% of acetonitrile containing 0.1% of formic acid for 3 min. The column was maintained at a temperature of 40° C., with a flow of 0.6 ml/min.
The compounds eluted from the column were detected with a photodiode array detector.
The relative amount of nondegraded compound in the solution was determined by comparison with the internal standard.
In a second experiment, the stability in aqueous medium of the compounds (IIa) and (IIIb) according to the invention, and that of GR24 as comparative compound, was evaluated according to the protocol described above.

pea mutant rms1 = experiment: Inhibition of branching in the pea, application directly on the axillary bud; assay type: in vivo, Pisum sativum L.; conditions: for activity (length of bud/branch at node 3, 8 days after treatment at node 3): mean of 24 plants
Protocol: Generally, in the pea, the first two scales are considered to be the first two nodes, the cotyledonary node being node 0.
The rms1 mutant is an “SMS” signal biosynthesis mutant, repressing branching of the plant.
Tests for activity on the inhibition of branching were carried out in the following way.
The strigolactone-deficient rms1 (ccd8) pea mutants described in Beveridge et al., 1997, were used for the test (M3T884 line derived from the Térèse variety).
The activity of the compounds (IIa), (II′d) and (II′e) in accordance with the invention and of the comparative compound GR24 was evaluated at respective doses of 10 nM, 100 nM and 1 μM, by treatment at node 3. […]
24 plants were sown per treatment. 8 days after sowing, the treatment was carried out on the axillary bud at node 3, by application of 10 μl of each solution to be tested, directly on the bud, by means of a micropipette. The lateral outgrowths at nodes 1 and 2 were removed in order to encourage the growth of the axillary buds at the higher nodes. […]
The activity of the compounds (IIa), (IIb), (IIc), (II′d), (II′e) and (II′f) in accordance with the invention was evaluated at respective doses of 100 nM and 1 μM, by treatment at node 3.
For this, solutions containing each compound to be tested, in 1% acetone, 4% propylene glycol 1450 and 50% ethanol, were used.
The activity of the compounds (IIa), (IIIa), (IIIb) and (IIIc) in accordance with the invention, and also of GR24 as comparative compound, was evaluated at respective doses of 100 nM and 1 μM, by treatment at node 3, according to the protocol described above with reference to experiment 2.
A sample consisting only of the solvent, and without active compound, was also tested as negative control, termed “CTL 0”.
In this experiment, the activity of the compound (IIIa) in accordance with the invention, and also of GR24 as comparative compound, was evaluated at respective doses of 1 nM, 10 nM, 100 nM and 1 μM, by treatment at node 3, according to the protocol described above with reference to experiment 2, for doses of 10 nM, 100 nM and 1 μM of compounds.
A sample consisting only of the solvent, and without active compound (“CTL 0”) was also tested as a negative control. A nontreated (“NT”) control was also carried out.
(§1) A dose-response test for evaluating the activity of the compounds by deposition at node 3 was carried out according to the protocol described above with reference to experiment 2, for the compound in accordance with the invention (IIa) and for the comparative compounds GR24, Comp. 3 and Comp. 4. Concentrations of 10 nM, 100 nM and 1 μM were tested.
A sample consisting only of the solvent, and without active compound (“CTL 0”), was also tested as a negative control. A nontreated (“NT”) control was also carried out.
as §1, with “Comp. 5” for “Comp. 3”, “Comp. 6.” for “Comp. 4.”, “10 nM and” for “10 nM,”, “nM” for “nM and 1 μM”, “tested. […]” for “tested.”
The sprouting of the axillary buds at node 4 was measured 8 days after the treatment by means of a digital sliding caliper.
The activity of the compound (IIIa) in accordance with the invention on bud growth at node 3 was evaluated at a dose of 1000 nM by treatment at node 3. The GR24 compound was tested at the same concentration as comparative compound. […]

SMILES: CC1=C(C)C(Sc2ccc(Cl)cc2)OC1=O (stereo not shown) [Compound (IIa), 5-((4-chlorophenyl)thio)-3,4-dimethylfuran-2(5H)-one]
- chemical stability in aqueous solution (% of nondegraded compound as a function of incubation time) ([1]; 50 μg/ml of compound in methanol/water: 1/4, pH 6.7, 21° C., FIG. 1): very high chemical stability in aqueous solution, much higher than that of GR24
- chemical stability in aqueous solution (% of nondegraded compound as a function of incubation time) ([1]; second experiment, longer incubation times, 50 μg/ml in methanol/water: 1/4, pH 6.7, 21° C., FIG. 2): very high chemical stability in aqueous solution, much higher than that of GR24
- inhibitory activity on bud growth (length of bud/branch at node 3, 8 days after treatment at node 3) (pea mutant rms1; Experiment 1, FIG. 3, 10 nM, 100 nM, 1 μM, at the highest concentrations): inhibitory activity on bud growth which is greater than that of the comparative compound GR24
- inhibitory activity on bud growth (length of bud/branch at node 3, 8 days after treatment at node 3) (pea mutant rms1; Experiment 2, FIG. 4, 100 nM and 1 μM): most active
- bud growth inhibition (length of bud/branch at node 3, 8 days after treatment at node 3) (pea mutant rms1; Experiment 3, FIG. 5, 100 nM and 1 μM): activity similar to that of the comparative compound GR24
- activity (length of bud/branch at node 3, 8 days after treatment at node 3) (pea mutant rms1; Experiment 5, FIG. 7, 10 nM, 100 nM and 1 μM): activity which is greater than the comparative compounds provided by the prior art, Comp. 3 and Comp. 4, this being at all the doses tested
- activity (length of bud/branch at node 3, 8 days after treatment at node 3) (pea mutant rms1; Experiment 6, FIG. 8, 10 nM and 100 nM): activity which is greater than the comparative compounds provided by the prior art, Comp. 5 and Comp. 6, this being at all the doses tested
